Measured values published in publication PMC1989143, “An Expanded Set of Amino Acid Analogs for the Ribosomal Translation of Unnatural Peptides” (PLoS ONE, 2007).

Legend:
Test in all cases: tRNA aminoacylation competition assay, MALDI-TOF MS
Type in all cases: biochemical
[1] = biological target: T1, ThrRS (Escherichia coli, UniProt P0A8M3); conditions: 50000 µM; 50 µM natural Thr (Table 3), 6 mM ATP, 17 mM MgCl2, E. coli total tRNA, pH 7.4, 37 °C; competitive
T1 construct: gene thrS; His-tagged, recombinant, purified
Text: tRNA aminoacylation competition assay, MALDI-TOF MS on ThrRS

[2] = biological target: T2, PheRS (Escherichia coli, UniProt P08312); conditions: 5000 µM; 5 µM natural Phe (Table 3), 6 mM ATP, 17 mM MgCl2, E. coli total tRNA, pH 7.4, 37 °C; competitive
T2 construct: gene pheS; His-tagged, recombinant, purified; wild-type enzyme; with Phenylalanine--tRNA ligase beta subunit
Text: tRNA aminoacylation competition assay, MALDI-TOF MS on PheRS

[3] = biological target: T3, ArgRS (Escherichia coli, UniProt P11875); conditions: 20000 µM; 20 µM natural Arg (Table 3), 6 mM ATP, 17 mM MgCl2, E. coli total tRNA, pH 7.4, 37 °C; competitive
T3 construct: gene argS; His-tagged, recombinant, purified
T3 sequence (P11875 1-577): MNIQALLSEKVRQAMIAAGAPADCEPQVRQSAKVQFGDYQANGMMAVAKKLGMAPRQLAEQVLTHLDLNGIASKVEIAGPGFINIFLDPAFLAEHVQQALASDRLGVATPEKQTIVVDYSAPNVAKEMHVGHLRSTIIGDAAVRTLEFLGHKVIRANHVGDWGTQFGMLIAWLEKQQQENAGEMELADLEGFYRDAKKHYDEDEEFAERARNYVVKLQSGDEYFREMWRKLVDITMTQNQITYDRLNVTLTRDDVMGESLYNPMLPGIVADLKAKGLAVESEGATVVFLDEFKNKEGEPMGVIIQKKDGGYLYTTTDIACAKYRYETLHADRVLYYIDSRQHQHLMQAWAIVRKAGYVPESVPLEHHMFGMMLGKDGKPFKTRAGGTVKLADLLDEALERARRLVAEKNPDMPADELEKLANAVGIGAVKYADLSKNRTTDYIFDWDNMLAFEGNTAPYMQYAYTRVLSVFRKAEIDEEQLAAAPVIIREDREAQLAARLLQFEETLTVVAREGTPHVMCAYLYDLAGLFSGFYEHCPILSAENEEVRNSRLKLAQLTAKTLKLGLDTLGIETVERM
Text: tRNA aminoacylation competition assay, MALDI-TOF MS on ArgRS

T1 sequence (P0A8M3 whole entry): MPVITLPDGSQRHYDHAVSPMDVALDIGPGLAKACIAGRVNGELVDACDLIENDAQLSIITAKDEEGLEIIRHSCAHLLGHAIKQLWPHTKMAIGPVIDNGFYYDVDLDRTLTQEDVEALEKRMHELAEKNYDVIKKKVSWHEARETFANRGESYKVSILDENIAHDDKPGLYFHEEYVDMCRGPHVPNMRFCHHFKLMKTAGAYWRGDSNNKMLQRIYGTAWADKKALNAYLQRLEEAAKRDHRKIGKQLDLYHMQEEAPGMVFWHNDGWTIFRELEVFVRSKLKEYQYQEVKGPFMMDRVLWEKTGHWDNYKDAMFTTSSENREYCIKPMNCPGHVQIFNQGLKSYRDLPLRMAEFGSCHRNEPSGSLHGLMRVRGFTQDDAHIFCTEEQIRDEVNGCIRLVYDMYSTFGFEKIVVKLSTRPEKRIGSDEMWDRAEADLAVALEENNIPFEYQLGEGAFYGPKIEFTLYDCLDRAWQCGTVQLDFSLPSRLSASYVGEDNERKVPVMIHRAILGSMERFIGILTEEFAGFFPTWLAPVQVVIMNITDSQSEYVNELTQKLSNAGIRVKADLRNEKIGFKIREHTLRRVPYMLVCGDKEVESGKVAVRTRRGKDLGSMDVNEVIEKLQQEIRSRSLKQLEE
T2 sequence (P08312 whole entry): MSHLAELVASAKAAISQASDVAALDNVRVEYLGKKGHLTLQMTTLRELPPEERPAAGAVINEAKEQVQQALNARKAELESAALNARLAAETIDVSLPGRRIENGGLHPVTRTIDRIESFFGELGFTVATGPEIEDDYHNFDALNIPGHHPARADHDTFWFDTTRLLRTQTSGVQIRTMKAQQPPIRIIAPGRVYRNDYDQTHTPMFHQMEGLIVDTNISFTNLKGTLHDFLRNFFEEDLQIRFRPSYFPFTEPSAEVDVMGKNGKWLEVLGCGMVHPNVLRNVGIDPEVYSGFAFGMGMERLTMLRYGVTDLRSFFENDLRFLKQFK
T2 sequence (P07395 whole entry partner): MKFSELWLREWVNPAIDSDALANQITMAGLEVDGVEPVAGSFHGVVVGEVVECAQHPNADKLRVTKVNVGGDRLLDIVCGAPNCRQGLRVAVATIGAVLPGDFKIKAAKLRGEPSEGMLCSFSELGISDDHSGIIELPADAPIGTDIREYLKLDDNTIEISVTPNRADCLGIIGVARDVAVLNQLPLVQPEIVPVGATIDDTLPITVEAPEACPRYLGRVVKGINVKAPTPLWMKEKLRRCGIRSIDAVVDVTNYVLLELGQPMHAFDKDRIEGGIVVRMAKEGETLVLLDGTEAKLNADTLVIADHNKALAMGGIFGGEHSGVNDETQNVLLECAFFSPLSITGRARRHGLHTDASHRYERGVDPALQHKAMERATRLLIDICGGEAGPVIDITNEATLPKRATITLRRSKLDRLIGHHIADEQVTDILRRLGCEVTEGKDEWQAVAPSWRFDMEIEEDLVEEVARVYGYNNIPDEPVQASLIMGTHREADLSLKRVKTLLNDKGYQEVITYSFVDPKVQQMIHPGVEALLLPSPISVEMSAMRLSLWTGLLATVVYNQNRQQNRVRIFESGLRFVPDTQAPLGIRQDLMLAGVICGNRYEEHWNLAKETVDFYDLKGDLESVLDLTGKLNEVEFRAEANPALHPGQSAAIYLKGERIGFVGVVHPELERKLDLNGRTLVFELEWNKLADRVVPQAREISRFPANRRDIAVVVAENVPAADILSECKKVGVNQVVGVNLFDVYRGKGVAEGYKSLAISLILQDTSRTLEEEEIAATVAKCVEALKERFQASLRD

Compound: CCC(O)C(N)C(=O)O (racemic) [P5, DL-β-hydroxy norvaline]
- % Inhibition ^b [1]: 92 (range 2.9) %

Compound: NC(Cc1ccccc1F)C(=O)O (stereo not drawn) [A5, 2-fluoro Phe]
- % Inhibition ^b [2]: 78 (range 2.1) %

Compound: N=C(N)NOCC[C@H](N)C(=O)O [C10, L-canavanine]
- % Inhibition ^b [3]: 82 (range 10.3) %
